The values that follow are results of earlier work, collected in patent US8597613B2, “Radiolabeled lymphatic staining agents and methods for making” (Iso-Tex Diagnostics, Inc, priority 2004, dated 2013).

For this data set the following is noted: 0.1-0.5 cc injected into the breast following wire-localization procedures.

Take `CN(C)c1ccc2nc3ccc(=[N+](C)C)cc-3sc2c1` [methylene blue, phenothiazin-5-ium-3,7-bis(dimethylamino)-chloride]: the reported adverse events result is listed as “no reported adverse events”.
